{"source": "patent US5496855A", "about": "“Anti-inflammatory compounds” (SmithKline Beecham Corp., priority 1995, dated 1996)", "key": {"[1]": {"system": "TPA-induced Mouse Ear Inflammation", "assay": "Assay (g): TPA-induced mouse ear inflammation (ear edema, MPO)", "format": "in vivo", "details": "topical; standard inhibitors at doses of 0.2, 0.1 and 0.3 respectively", "method": "(§1) Male Balb/c inbred mice are obtained from Charle River Breeding Laboratories (Kingston, N.Y.). Within a single experiment mice (22-25 g) are age-matched. These in vivo experiments typically involve the use of 5-6 animals/group.\nTPA (12-0-tetradecanoylphorbol 13-acetate) (Sigma Chemical Company) in acetone ([…]) is applied to the inner and outer surfaces of the left ear of BALB/c male mice. The thickness of both ears is then measured with a dial micrometer (Mitutoyo, Japan) at both 2 and 4 hours after treatment, and the data expressed as the change in thickness (10^-3 cm) between treated and untreated ears. […] After measuring the edema, the inflammed left ears are removed and stored at -70° C. until they were assayed for MPO (myeloperoxidase) activity where appropriate.\n(§2) On the day of the assay, partially thawed ear tissues are minced and then homogenized (10% w/v) with a Tissumizer homogenizer (Tekmar Co.) in 50 mM phosphate buffer (pH 6) containing 0.5% HTAB. The tissue homogenates are taken through three cycles of freeze-thaw, followed by brief sonication (10 sec). The method of Bradley et at. is used with modifications as described. […] Supernatant MPO activity is quantified kinetically (change in absorbance measured over 3 min, sampled at 15-sec intervals) using a Beckman DU-7 spectrophotometer and a Kinetics Analysis package (Beckman Instruments, Inc.). One unit of MPO activity is defined as that degrading one micromole of peroxide per minute at 25° C.\nStatistical analysis is done using Student's \"t\" test."}, "[2]": {"system": "Arachidonic acid induced ear inflammation", "assay": "Assay (h): Arachidonic acid induced ear inflammation (ear edema, MPO)", "format": "in vivo, mouse", "details": "topical; standard inhibitors at doses of 0.2, 0.1 and 0.3 respectively", "method": "as §1, §2\nArachidonic acid is dissolved in acetone (1 mg/ear) to the left ear of BALB/c male mice. The thickness of both cars is measured with a constant pressure thickness guage 1 hour after treatment and the data expressed as the change in thickness between treated and untreated ears. Test compounds or vehicle are given at the time of AA application. The inflammatory cell infiltration is measured by MPO activity as described above in the TPA ear edema assay. After the edema measurements are made, the inflamed ears are removed and assayed for MPO activity."}}, "data": [{"smiles": "C[C@H](C(=O)O)c1ccc2cc(OCc3ccc4ccccc4n3)ccc2c1", "note": "[WY 50,295]", "values": [{"measurement": "TPA % change in edema", "setting": "[1]", "result": -18, "unit": "%"}, {"measurement": "change in MPO, TPA model", "setting": "[1]", "result": -36}, {"measurement": "AA % change in edema", "setting": "[2]", "result": -50, "unit": "%"}, {"measurement": "change in MPO, AA model", "setting": "[2]", "result": -90}]}, {"smiles": "C[C@@H]1C[C@H]2[C@@H]3CCC4=CC(=O)C=C[C@]4(C)[C@@]3(F)[C@@H](O)C[C@]2(C)[C@@]1(O)C(=O)CO", "note": "[dexamethasone]", "values": [{"measurement": "TPA % change in edema", "setting": "[1]", "result": -50, "unit": "%"}, {"measurement": "change in MPO, TPA model", "setting": "[1]", "result": -54}, {"measurement": "AA % change in edema", "setting": "[2]", "result": -10, "unit": "%"}, {"measurement": "change in MPO, AA model", "setting": "[2]", "result": 0}]}, {"smiles": "CC(=O)O[C@H]1C[C@@H]2[C@@]3(C)CCCC(C)(C)[C@@H]3CC[C@@]2(C)[C@@H]2CC=C(C=O)[C@H](C=O)[C@@]12C", "note": "[scalaradial]", "values": [{"measurement": "change in MPO, TPA model", "setting": "[1]", "result": -65}, {"measurement": "change in MPO, AA model", "setting": "[2]", "result": -33}]}]}
